A word on the IC50: it is the concentration that inhibits the measured activity by half.

The values below come from PMC3634089 (The Korean Journal of Physiology & Pharmacology : …, 2013).

For this experiment, the target named is GABAC receptor ρ1 subunit (Homo sapiens, UniProt P24046). The experiment can be described thus: two-electrode voltage clamp in Xenopus oocytes expressing human ρ[…]. The format is cell-based. In general terms: In two-electrode clamp one electrode senses voltage and the other passes current.
Chain of GABAC receptor ρ1 subunit (P24046 22-479): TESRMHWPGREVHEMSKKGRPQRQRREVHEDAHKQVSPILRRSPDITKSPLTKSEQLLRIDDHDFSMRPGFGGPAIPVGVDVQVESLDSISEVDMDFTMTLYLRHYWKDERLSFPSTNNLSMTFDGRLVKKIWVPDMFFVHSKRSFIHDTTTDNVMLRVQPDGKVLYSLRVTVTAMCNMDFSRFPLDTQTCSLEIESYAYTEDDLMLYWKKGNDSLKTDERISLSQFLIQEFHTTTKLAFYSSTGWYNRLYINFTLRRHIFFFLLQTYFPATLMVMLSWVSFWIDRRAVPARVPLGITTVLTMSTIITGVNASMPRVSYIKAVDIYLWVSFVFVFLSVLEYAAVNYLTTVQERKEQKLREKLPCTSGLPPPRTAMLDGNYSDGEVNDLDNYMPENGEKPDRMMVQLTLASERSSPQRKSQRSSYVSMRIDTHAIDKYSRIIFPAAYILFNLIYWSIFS

Regarding `CC(C)=CCC[C@](C)(O)[C@H]1CC[C@]2(C)[C@@H]1[C@H](O)C[C@@H]1[C@@]3(C)CC[C@H](O)C(C)(C)[C@@H]3[C@@H](O)C[C@]12C` [M4, protopanaxatriol], half-maximal inhibition (IC50) was put at 45.7 ± 3.9 µM.
